Assay results: patent US10150728B2, “Alkylene derivatives” (Shionogi & Co., Ltd., priority 2013, dated 2018)

Target: recombinant human ACC2 (Homo sapiens (Human), UniProt O00763)
Assay: Measurement of inhibitory activity on human ACC2 (MALDI-TOF MS, acetyl CoA to malonyl CoA conversion)
Type: biochemical
Settings: Table 154
Summary of the method: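 His-tagged human ACC2 (residues 27–2458) from baculovirus-infected Sf-9 cells was preincubated 1 h in pH 7.4 HEPES-KOH buffer with MgCl2, 6-10 mM potassium citrate, glutathione and BSA. Substrate solution held 1 mM ATP, 0.8 mM acetyl CoA and 25-50 mM bicarbonate. After 1–3 h at room temperature, malonyl CoA/(malonyl+acetyl CoA) was read by negative-mode MALDI-TOF MS; citrate, bicarbonate and time varied by enzyme lot.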

Chain of recombinant human ACC2 (O00763 27-2458): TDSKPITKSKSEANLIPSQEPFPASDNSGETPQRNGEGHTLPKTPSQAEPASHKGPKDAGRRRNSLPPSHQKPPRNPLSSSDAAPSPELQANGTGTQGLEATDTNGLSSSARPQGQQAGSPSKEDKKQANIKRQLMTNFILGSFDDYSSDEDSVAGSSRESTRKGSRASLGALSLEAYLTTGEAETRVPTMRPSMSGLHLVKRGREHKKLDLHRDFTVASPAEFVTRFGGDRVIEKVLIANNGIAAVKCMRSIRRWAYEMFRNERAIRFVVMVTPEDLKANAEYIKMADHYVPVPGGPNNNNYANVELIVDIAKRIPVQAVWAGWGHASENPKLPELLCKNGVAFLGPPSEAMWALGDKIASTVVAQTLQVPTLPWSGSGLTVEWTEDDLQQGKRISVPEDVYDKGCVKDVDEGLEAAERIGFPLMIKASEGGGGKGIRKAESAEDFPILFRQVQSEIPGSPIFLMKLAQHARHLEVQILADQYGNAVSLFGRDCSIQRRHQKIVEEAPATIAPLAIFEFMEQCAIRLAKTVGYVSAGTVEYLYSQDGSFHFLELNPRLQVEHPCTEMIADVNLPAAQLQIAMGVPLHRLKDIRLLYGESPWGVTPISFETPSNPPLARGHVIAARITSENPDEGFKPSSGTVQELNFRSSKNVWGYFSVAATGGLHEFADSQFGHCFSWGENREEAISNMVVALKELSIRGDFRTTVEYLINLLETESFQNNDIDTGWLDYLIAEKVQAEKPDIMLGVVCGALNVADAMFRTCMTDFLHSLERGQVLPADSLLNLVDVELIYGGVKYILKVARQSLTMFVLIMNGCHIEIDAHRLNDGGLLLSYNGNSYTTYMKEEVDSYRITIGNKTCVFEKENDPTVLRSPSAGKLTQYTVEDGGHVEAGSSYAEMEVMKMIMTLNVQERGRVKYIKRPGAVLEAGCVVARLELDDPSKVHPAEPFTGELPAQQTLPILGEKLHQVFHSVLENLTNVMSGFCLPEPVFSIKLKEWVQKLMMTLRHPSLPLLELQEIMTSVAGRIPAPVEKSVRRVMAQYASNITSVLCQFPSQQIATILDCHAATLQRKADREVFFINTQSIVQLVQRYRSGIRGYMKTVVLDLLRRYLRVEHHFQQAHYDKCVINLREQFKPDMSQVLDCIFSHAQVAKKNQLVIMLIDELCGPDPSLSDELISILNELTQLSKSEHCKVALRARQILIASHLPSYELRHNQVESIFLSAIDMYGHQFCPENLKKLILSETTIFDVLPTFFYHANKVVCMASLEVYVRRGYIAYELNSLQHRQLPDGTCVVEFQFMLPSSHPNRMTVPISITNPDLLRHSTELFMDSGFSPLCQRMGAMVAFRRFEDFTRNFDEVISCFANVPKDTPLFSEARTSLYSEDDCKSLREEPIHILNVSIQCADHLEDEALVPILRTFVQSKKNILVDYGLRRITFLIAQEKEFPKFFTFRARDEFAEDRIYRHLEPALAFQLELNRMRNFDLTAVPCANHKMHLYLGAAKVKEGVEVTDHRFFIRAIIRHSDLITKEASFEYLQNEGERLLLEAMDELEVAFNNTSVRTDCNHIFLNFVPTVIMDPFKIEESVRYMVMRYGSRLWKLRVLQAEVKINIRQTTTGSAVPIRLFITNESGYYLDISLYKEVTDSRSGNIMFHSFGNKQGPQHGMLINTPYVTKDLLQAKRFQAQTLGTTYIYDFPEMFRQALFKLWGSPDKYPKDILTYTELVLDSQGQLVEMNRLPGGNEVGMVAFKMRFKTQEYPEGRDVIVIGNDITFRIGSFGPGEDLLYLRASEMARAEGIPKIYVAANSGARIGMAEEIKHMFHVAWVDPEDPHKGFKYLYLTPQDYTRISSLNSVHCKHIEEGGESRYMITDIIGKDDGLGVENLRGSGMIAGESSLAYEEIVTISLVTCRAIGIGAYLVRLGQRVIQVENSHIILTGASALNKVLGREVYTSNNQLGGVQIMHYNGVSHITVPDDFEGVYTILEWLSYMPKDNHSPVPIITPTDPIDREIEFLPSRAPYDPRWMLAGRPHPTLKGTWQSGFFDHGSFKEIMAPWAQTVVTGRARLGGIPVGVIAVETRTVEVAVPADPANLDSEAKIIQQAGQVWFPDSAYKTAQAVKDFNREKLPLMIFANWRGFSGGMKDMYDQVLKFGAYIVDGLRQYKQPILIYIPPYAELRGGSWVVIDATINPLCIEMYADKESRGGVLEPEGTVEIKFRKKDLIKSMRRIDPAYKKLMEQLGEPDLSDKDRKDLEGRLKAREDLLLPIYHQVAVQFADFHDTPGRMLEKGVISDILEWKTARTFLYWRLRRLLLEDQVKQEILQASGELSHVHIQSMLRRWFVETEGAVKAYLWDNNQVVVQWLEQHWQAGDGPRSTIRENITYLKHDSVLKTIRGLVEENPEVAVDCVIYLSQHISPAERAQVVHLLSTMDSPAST

In order of rising IC50:
1. CC(=O)N[C@@H](C)CO[C@H]1CC[C@H](Oc2ncc(-c3ccccc3)cc2Cl)CC1 [Compound I-104]  0.012 µM
2. CC(=O)N[C@@H](C)COc1cnc(Oc2ccc3nc(C(C)(F)F)sc3c2F)cn1 [Compound I-036]  0.015 µM
3. CC(=O)N[C@@H](C)COc1ccc(Oc2ccc3nc(C(C)C)sc3c2Cl)cn1 [Compound I-012]  0.064 µM
4. CCCc1ccc(Oc2ccc(O[C@@H](C)[C@H](C)NC(C)=O)nc2)c(Cl)c1 [Compound I-011]  0.12 µM
5. CC(C)c1nc2ccc(Oc3ccc(OC[C@H](C)NC(N)=O)nc3)c(Cl)c2s1 [Compound I-024]  0.133 µM
6. CCOc1nc2ccc(O[C@H]3C[C@@H](OC[C@H](C)NC(C)=O)C3)c(Cl)c2s1 [Compound I-077]  0.168 µM
7. CC(=O)N[C@@H](C)COc1cnc(Oc2ccc3nc(N4CCC(F)(F)CC4)ncc3c2Cl)cn1 [Compound I-073]  0.221 µM
8. CC(=O)N[C@@H](C)CO[C@H]1CC[C@H](Oc2ccc3nc(C(C)(C)O)sc3c2Cl)CC1 [Compound I-047]  0.336 µM
9. CCOc1nc2ccc(O[C@H]3CC[C@](C)(OC[C@H](C)NC(C)=O)CC3)c(Cl)c2s1 [Compound I-083]  0.351 µM
10. CCCc1ccc(Oc2cnc(OC[C@H](C)NC(C)=O)cn2)c(Cl)c1 [Compound I-021]  0.502 µM

Same assay, conditions: Tables 155-159

In order of falling IC50:
1. CC(=O)N[C@@H](C)CO[C@H]1CC[C@H](Oc2ncc(-c3ncc(F)cn3)cc2OCc2ccccc2)CC1 [Compound I-537]  0.975 µM
2. COc1ccc2c(c1)nc(O[C@H]1CC[C@H](OC[C@H](C)NC(C)=O)CC1)n2C [Compound I-570]  0.935 µM
3. CC(=O)N[C@@H](C)CO[C@H]1C[C@H](COc2ccc3nc(N(C)CC#N)sc3n2)C1 [Compound I-282]  0.892 µM
4. CC(=O)N[C@@H](C)CO[C@H]1C[C@H](COc2ncnc(OCc3ncco3)c2Cl)C1 [Compound I-431]  0.809 µM
5. COc1cccc(COc2ncnc(OC[C@H]3C[C@H](OC[C@H](C)NC(C)=O)C3)c2Cl)n1 [Compound I-404]  0.676 µM
6. CC(=O)N[C@@H](C)CO[C@H]1C[C@H](COc2ncnc3c2ccn3Cc2cccnc2)C1 [Compound I-434]  0.653 µM
7. CC(=O)N[C@@H](C)CO[C@H]1CC[C@H](Oc2nc3c(C(N)=O)cc(OC4CC4)c(F)c3n2C)CC1 [Compound I-673]  0.65 µM
8. CCn1ccc2c(OC[C@H]3C[C@H](OC[C@H](C)NC(C)=O)C3)ncnc21 [Compound I-453]  0.61 µM
9. CC(=O)N[C@@H](C)CO[C@H]1CC[C@H](Oc2nc3c(C4CC4)cc(OCC(F)F)cc3n2C)CC1 [Compound I-650]  0.375 µM
10. CC(=O)N[C@@H](C)CO[C@H]1C[C@H](COc2ccc3nc(O[C@H]4C[C@@H](O)C4)sc3n2)C1 [Compound I-294]  0.3 µM
11. CC(=O)N[C@@H](C)CO[C@H]1C[C@H](COc2ccc3nc(Oc4ccccc4)n(C)c3n2)C1 [Compound I-481]  0.298 µM
12. CC(=O)N[C@@H](C)[C@@H](C)O[C@H]1CC[C@H](Oc2nc3cnc(OCC(F)F)c(Cl)c3n2C)CC1 [Compound I-732]  0.26 µM
13. CC(=O)N[C@@H](C)CO[C@H]1CC[C@H](Oc2nc3cc(Br)ccc3n2C)CC1 [Compound I-557]  0.216 µM
14. CC(=O)N[C@@H](C)CO[C@H]1C[C@H](COc2ncnc3c2c(I)cn3CC2CC2)C1 [Compound I-425]  0.17 µM
15. CC(=O)N[C@@H](C)CO[C@H]1CC[C@H](Oc2nc3cc(OCC4CC4)ccc3n2C)CC1 [Compound I-567]  0.167 µM
16. CC(=O)N[C@@H](C)CO[C@H]1C[C@H](COc2ccc3nc(C(C)(C)O)sc3n2)C1 [Compound I-171]  0.152 µM
17. CC(=O)N[C@@H](C)CO[C@H]1C[C@H](COc2ccc3nc(C(C)(C)O)sc3c2F)C1 [Compound I-109]  0.148 µM
18. CC(=O)N[C@@H](C)CO[C@H]1CC[C@H](Oc2nc3c(Cl)cc(Br)cc3n2C)CC1 [Compound I-678]  0.123 µM
19. CC(=O)N[C@@H](C)CO[C@H]1C[C@H](COc2ccc3nc(N4CCOCC4)sc3n2)C1 [Compound I-229]  0.113 µM
20. CC(=O)N[C@@H](C)CO[C@H]1C[C@H](COc2nccc(OC3CCC3)c2Cl)C1 [Compound I-367]  0.113 µM
21. CC(=O)N[C@@H](C)CO[C@H]1C[C@](F)(COc2ccc3nc(Oc4ccc(F)cc4)sc3n2)C1 [Compound I-204]  0.113 µM
22. CC(=O)N[C@@H](C)CO[C@H]1C[C@H](COc2ccc3nc(N4CC[C@H](F)C4)sc3n2)C1 [Compound I-289]  0.11 µM
23. CC(=O)N[C@@H](C)CO[C@H]1C[C@H](COc2ncnc(C3=CCCCC3)c2C)C1 [Compound I-419]  0.109 µM
24. CC(=O)N[C@@H](C)CO[C@H]1CC[C@H](Oc2nc3ccc(Br)cc3n2C)CC1 [Compound I-556]  0.105 µM
25. CC(=O)N[C@@H](C)CO[C@H]1CC[C@H](Oc2cc3sc(O[C@@H]4CCOC4)nc3cn2)CC1 [Compound I-260]  0.102 µM
26. CCOc1cc2c(cn1)nc(O[C@H]1CC[C@H](OC[C@H](C)NC(C)=O)CC1)n2C [Compound I-563]  0.101 µM
27. CC(=O)N[C@@H](C)CO[C@H]1C[C@H](COc2ccc3nc(OCC4(C)COC4)sc3n2)C1 [Compound I-211]  0.097 µM
28. CC(=O)N[C@@H](C)CO[C@H]1CC[C@H](Oc2nc3ccc(Oc4cccnc4)cc3n2C)CC1 [Compound I-593]  0.08 µM
29. C[C@@H](CO[C@H]1C[C@H](COc2ccc3nc(OCC(F)F)sc3n2)C1)NC(=O)O [Compound I-206]  0.079 µM
30. CC(=O)N[C@@H](C)CO[C@H]1CC[C@H](Oc2ncnc(OCc3ccc(F)cn3)c2Cl)CC1 [Compound I-446]  0.077 µM
31. CC(=O)N[C@@H](C)CO[C@H]1C[C@H](COc2nc(C)nc3c2ccn3CC2CC2)C1 [Compound I-447]  0.076 µM
32. CC(=O)N[C@@H](C)CO[C@H]1CC[C@H](Oc2ccc3nc(O[C@H]4C[C@@H](C#N)C4)sc3c2F)CC1 [Compound I-162]  0.074 µM
33. CC(=O)N[C@@H](C)CO[C@H]1CC[C@H](Oc2ccc3nc(OC4COC4)sc3c2F)CC1 [Compound I-130]  0.057 µM
34. COc1ccc(COc2ncnc(OC[C@H]3C[C@H](OC[C@H](C)NC(C)=O)C3)c2Cl)cn1 [Compound I-348]  0.057 µM
35. CCN(C)c1nc2ccc(OC[C@H]3C[C@H](OC[C@H](C)NC(C)=O)C3)nc2s1 [Compound I-230]  0.054 µM
36. CC(=O)N[C@@H](C)CO[C@H]1C[C@H](COc2ncnc3c2ccn3CC2CCCCC2)C1 [Compound I-449]  0.051 µM
37. CC(=O)N[C@@H](C)CO[C@H]1C[C@H](COc2nccc3ccccc23)C1 [Compound I-318]  0.049 µM
38. CC(=O)N[C@@H](C)CO[C@H]1C[C@H](COc2ncnc(OCc3cccc(C(F)(F)F)c3)c2Cl)C1 [Compound I-350]  0.049 µM
39. CC(=O)N[C@@H](C)CO[C@H]1CC[C@H](Oc2nc3c(F)c(C#N)c(OCC(F)F)c(F)c3n2C)CC1 [Compound I-747]  0.044 µM
40. CC(=O)N[C@@H](C)CO[C@H]1C[C@](F)(COc2ccc3nc(OCC(F)F)sc3n2)C1 [Compound I-297]  0.042 µM
41. CCOc1cc(F)c2nc(O[C@H]3CC[C@H](OC[C@H](C)NC(C)=O)CC3)n(C)c2c1 [Compound I-723]  0.041 µM
42. CC(=O)N[C@@H](C)CO[C@H]1C[C@H](COc2ncnc(Oc3nsc4ccccc34)c2Cl)C1 [Compound I-399]  0.04 µM
43. CCOc1nc2ccc(OC[C@]3(F)C[C@@H](OC[C@H](C)NC(C)=O)C3)nc2s1 [Compound I-163]  0.039 µM
44. CC(=O)N[C@@H](C)CO[C@H]1C[C@H](Oc2nccc3c(OCC4CC4)nccc23)C1 [Compound I-442]  0.035 µM
45. CC(=O)N[C@@H](C)CO[C@H]1C[C@H](COc2ncnc(OCc3cc(F)ccn3)c2F)C1 [Compound I-363]  0.032 µM
46. CC(=O)N[C@@H](C)CO[C@H]1C[C@H](COc2ncnc3c2ccn3Cc2cccc(F)c2)C1 [Compound I-473]  0.028 µM
47. CC(=O)N[C@@H](C)CO[C@H]1C[C@H](COc2nccc(C3=CCCC3)c2C)C1 [Compound I-336]  0.025 µM
48. CC(=O)N[C@@H](C)CO[C@H]1CC[C@H](Oc2ccc3nc(OCC4CC4)n(C)c3n2)CC1 [Compound I-496]  0.024 µM
49. CC(=O)N[C@@H](C)[C@H](C)O[C@H]1CC[C@H](Oc2nc3c(F)cc(OCC(F)F)c(F)c3n2C)CC1 [Compound I-659]  0.023 µM
50. CNC(=O)N[C@@H](C)CO[C@H]1CC[C@H](Oc2nc3c(F)cc(OCC(F)F)c(F)c3n2C)CC1 [Compound I-701]  0.023 µM
51. CC(=O)N[C@@H](C)CO[C@H]1C[C@@H](COc2ccc3nc(N4CC(F)(F)C4)sc3n2)C1 [Compound I-251]  0.022 µM
52. CC(=O)N[C@@H](C)CO[C@H]1CC[C@H](Oc2ccc3nc(OCC(C)(F)F)n(C)c3n2)CC1 [Compound I-500]  0.021 µM
53. CC(=O)N[C@@H](C)CO[C@H]1CC[C@H](Oc2nc3c(C)nc(OC4CC4)c(F)c3n2C)CC1 [Compound I-632]  0.019 µM
54. CC(=O)N[C@@H](C)CO[C@H]1C[C@H](COc2ccc3nc(OC4CC4)sc3n2)C1 [Compound I-172]  0.013 µM
55. CC(=O)N[C@@H](C)CO[C@H]1C[C@@H](COc2ccc3nc(OCC(F)F)sc3n2)C1 [Compound I-217]  0.008 µM
56. CC(=O)N[C@@H](C)CO[C@H]1C[C@H](COc2ncnc(OCc3ccc(Cl)cn3)c2Cl)C1 [Compound I-396]  0.008 µM
57. CCOc1c(Cl)cc2nc(O[C@H]3CC[C@H](OC[C@H](C)NC(C)=O)CC3)n(C)c2c1Cl [Compound I-603]  0.007 µM
58. CC(=O)N[C@@H](C)CO[C@H]1CC[C@H](Oc2nc3c(Cl)nc(OC4CC4)c(Cl)c3n2C)CC1 [Compound I-710]  0.006 µM
59. CC(=O)N[C@@H](C)CO[C@H]1CC[C@H](Oc2nc3cc(F)c(OCC(F)F)c(F)c3n2C)CC1 [Compound I-658]  0.004 µM
60. CC(=O)N[C@@H](C)CO[C@H]1CC[C@H](Oc2nc3c(F)cc(OC4CC(F)(F)C4)c(F)c3n2C)CC1 [Compound I-713]  0.003 µM
